Data on two compounds can be found in patent US9518018B2, “3-alkoxy, thioalkyl and amino-4-amino-6-(substituted)picolinates and their use as herbicides” (Dow AgroSciences LLC, priority 2011, dated 2016).

In data set [1] the test system is ABUTH: velvetleaf (Abutilon theophrasti). The experiment in a line: Post-Emergent Test I herbicidal activity. The settings on record: Abutilon theophrasti, post-emergence, 336 h, Table 3, 140 g ai/ha, read-out: Visual Growth Reduction (%)-14 Days after Application ABUTH. The class given is in vivo. Summed up:
(§1)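 Greenhouse-grown seedlings (peat-based mix, pH 6.0–6.8; ~15 h photoperiod, 23–29 °C day) were sprayed post-emergence at first/second true-leaf stage with compound in acetone/DMSO/aqueous crop-oil–surfactant carrier at 187 L/ha, using a twofold rate series. Injury was scored visually after 14 d (0–100%); GR20/GR50/GR80 derived by probit analysis.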

The test system of data set [2] is CHEAL: lambsquarters (Chenopodium album). Put plainly: Post-Emergent Test I herbicidal activity. The class given is in vivo. The settings on record: Chenopodium album, post-emergence, 336 h, Table 3, 140 g ai/ha, read-out: Visual Growth Reduction (%)-14 Days after Application CHEAL. Summed up:
as §1

For data set [3], the system named is CYPES: yellow nutsedge (Cyperus esculentus). The experiment in a line: Post-Emergent Test I herbicidal activity. Type of data set: in vivo. The settings on record: post-emergence, 336 h, Table 3, 140 g ai/ha, read-out: Visual Growth Reduction (%)-14 Days after Application CYPES. Summed up: as §1
For data set [4], the system named is ECHCG: barnyardgrass (Echinochloa crus-galli). Put plainly: Post-Emergent Test I herbicidal activity. The class given is in vivo. The settings on record: post-emergence, 336 h, Table 3, 140 g ai/ha, read-out: Visual Growth Reduction (%)-14 Days after Application ECHCG. Summed up: (§2)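 Greenhouse plants at first-second true leaf stage sprayed post-emergence by track sprayer at 187 L/ha with compound in acetone/DMSO/water/isopropanol carrier with crop oil concentrate and Triton X-155, top rate plus ½× to 1/16× serial rates. Injury scored visually at 14 d, 0-100% versus untreated plants; GR20, GR50, GR80 from probit analysis.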

In data set [5] the test system is EPHHL: wild poinsettia (Euphorbia heterophylla). Put plainly: Post-Emergent Test I herbicidal activity. Type of data set: in vivo. The settings on record: post-emergence, 336 h, Table 3, 140 g ai/ha, read-out: Visual Growth Reduction (%)-14 Days after Application EPHHL. Summed up:
as §1

Data set [6] deals with ORYSA: rice (Oryza sativa). Put plainly: Post-Emergent Test I herbicidal activity. Type of data set: in vivo. The settings on record: post-emergence, 336 h, Table 3, 140 g ai/ha, read-out: Visual Growth Reduction (%)-14 Days after Application ORYSA. Summed up:
as §2

In the next data set the test system is ZEAMX: corn (Zea mays). Put plainly: Post-Emergent Test I herbicidal activity. Type of data set: in vivo. The settings on record: Zea mays, post-emergence, 336 h, Table 3, 140 g ai/ha, read-out: Visual Growth Reduction (%)-14 Days after Application ZEAMX. Summed up: as §1

For the compound `COc1c(C(=O)O)nc(-c2ccc(Cl)c(F)c2F)c(F)c1N` [Compound 48], the melting point (usually the temperature, or range, at which the solid turns liquid) came to 151 °C. In data set [1], the pest or weed control at 140 g/ha was found to be 90%. Also, the pest or weed control at 140 g/ha in data set [2] came to 100%. The pest or weed control at 140 g/ha in data set [3] came out at 100%. For the same compound, in data set [4], the pest or weed control at 140 g/ha is 90%. The pest or weed control at 140 g/ha in data set [5] amounted to 100%. Also, in data set [6], the pest or weed control at 140 g/ha was 0%. Further, the pest or weed control at 140 g/ha in the data set with ZEAMX: corn (Zea mays) came to 80%.

Turning to `COC(=O)c1nc(-c2ccc(Cl)c(F)c2)c(F)c(N)c1SC` [Compound 93, Methyl 4-amino-6-(4-chloro-3-fluorophenyl)-5-fluoro-3-(methylthio)picolinate], the melting point lay in the range of 125 to 126 °C. The pest or weed control at 140 g/ha in data set [1] amounted to 30%. The pest or weed control at 140 g/ha in data set [2] is 90%. Besides, the pest or weed control at 140 g/ha in data set [3] was determined as 0%. Moreover, the pest or weed control at 140 g/ha in data set [4] stood at 0%. Also, the pest or weed control at 140 g/ha in data set [5] came to 50%. In addition, the pest or weed control at 140 g/ha in data set [6] worked out at 0%. The pest or weed control at 140 g/ha in the data set with ZEAMX: corn (Zea mays) was determined as 0%.
